Results: patent publication US11739070B2, “C5A receptor modulators” (IDORSIA PHARMACEUTICALS LTD, priority 2018, dated 2023)
pIC50: −log10 of the molar value.

Target: T1, C5AR1 (Homo sapiens, UniProt P21730)
T1 construct: host or cells: CHO-K1
T1 sequence (P21730 1-350): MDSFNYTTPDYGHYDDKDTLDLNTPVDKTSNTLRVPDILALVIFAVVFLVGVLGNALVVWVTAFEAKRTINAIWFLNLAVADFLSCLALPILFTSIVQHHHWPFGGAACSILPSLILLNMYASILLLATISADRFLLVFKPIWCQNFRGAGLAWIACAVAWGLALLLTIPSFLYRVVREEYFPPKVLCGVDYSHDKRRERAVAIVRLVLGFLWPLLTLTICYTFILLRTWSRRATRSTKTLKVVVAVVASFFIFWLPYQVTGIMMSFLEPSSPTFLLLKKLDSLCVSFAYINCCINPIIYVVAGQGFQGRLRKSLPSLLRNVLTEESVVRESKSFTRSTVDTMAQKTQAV
Experiment: hC5a DISCO IC50 assay (PathHunter beta-arrestin, antagonist mode)
Type: cell-based
Settings: CHO-K1 C5AR1 beta-arrestin cell line; antagonist vs 1-10 nM C5a agonist; geometric mean values; read-out: C5aR IC50
Method in brief: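 Antagonist added first, then 1-10 nM C5a agonist; cells incubated 1.5 h at 37 °C. Beta-arrestin signal developed with PathHunter detection reagent, 45 min at RT. IC50 in nmol/l from serial antagonist dilutions, reported as geometric mean of several measurements.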

| Compound | pIC50 |
| --- | --- |
| COc1cccc2c1n(Cc1ccccc1C(F)(F)F)c(=O)n2[C@@H]1CCN(C(=O)OC2COC2)C1 [Example 72, (R)-3-[4-Methoxy-2-oxo-3-(2-trifluoromethyl-benzyl)-2,3-dihydro-benzoimidazol-1-yl]-pyrrolidine-1-carboxylic acid oxetan-3-yl ester] | 6.40 |
| COc1cccc2c1n(Cc1ccncc1C(F)(F)F)c(=O)n2C1CCN(c2c(C)cccc2C)CC1 [Example 73, 1-[1-(2,6-Dimethyl-phenyl)-piperidin-4-yl]-4-methoxy-3-(3-trifluoromethyl-pyridin-4-ylmethyl)-1,3-dihydro-benzoimidazol-2-one] | 6.57 |
| COc1cccc2c1n(Cc1ccncc1C(F)(F)F)c(=O)n2C1CCN(c2c(F)cccc2F)CC1 [Example 74, 1-[1-(2,6-Difluoro-phenyl)-piperidin-4-yl]-4-methoxy-3-(3-trifluoromethyl-pyridin-4-ylmethyl)-1,3-dihydro-benzoimidazol-2-one] | 5.88 |
| COc1cccc2c1n(Cc1ncccc1C(F)(F)F)c(=O)n2C1CCN(c2c(C)cccc2C)CC1 [Example 75, 1-[1-(2,6-Dimethyl-phenyl)-piperidin-4-yl]-4-methoxy-3-(3-trifluoromethyl-pyridin-2-ylmethyl)-1,3-dihydro-benzoimidazol-2-one] | 7.57 |
| COc1cccc2c1n(Cc1ncccc1C(F)(F)F)c(=O)n2C1CCN(c2c(F)cccc2F)CC1 [Example 76, 1-[1-(2,6-Difluoro-phenyl)-piperidin-4-yl]-4-methoxy-3-(3-trifluoromethyl-pyridin-2-ylmethyl)-1,3-dihydro-benzoimidazol-2-one] | 7.42 |
| COc1ccccc1Cn1c(=O)n([C@@H]2CCN(c3c(C)cccc3C)C2)c2ccnc(OC)c21 [Example 77, 1-[(R)-1-(2,6-Dimethyl-phenyl)-pyrrolidin-3-yl]-4-methoxy-3-(2-methoxy-benzyl)-1,3-dihydro-imidazo[4,5-c]pyridin-2-one] | 7.05 |
| COc1ccccc1Cn1c(=O)n([C@@H]2CCN(c3c(C)cccc3F)C2)c2ccnc(OC)c21 [Example 78, 1-[(R)-1-(2-Fluoro-6-methyl-phenyl)-pyrrolidin-3-yl]-4-methoxy-3-(2-methoxy-benzyl)-1,3-dihydro-imidazo[4,5-c]pyridin-2-one] | 6.92 |
| COc1ccccc1Cn1c(=O)n([C@@H]2CCN(c3c(C)cccc3F)C2)c2cc[nH]c(=O)c21 [Example 81, 1-[(R)-1-(2-Fluoro-6-methyl-phenyl)-pyrrolidin-3-yl]-3-(2-methoxy-benzyl)-3,5-dihydro-1H-imidazo[4,5-c]pyridine-2,4-dione] | 5.61 |
| COc1cccc2c1n(Cc1ccccc1C(F)(F)F)c(=O)n2[C@@H]1CCN(c2c(F)cccc2C#N)C1 [Example 82, 3-Fluoro-2-{(R)-3-[4-methoxy-2-oxo-3-(2-trifluoromethyl-benzyl)-2,3-dihydro-benzoimidazol-1-yl]-pyrrolidin-1-yl}-benzonitrile] | 7.55 |
| COc1cccc2c1n(Cc1ccccc1C(F)(F)F)c(=O)n2[C@@H]1CCN(c2c(F)cccc2C=O)C1 [Example 83, 3-Fluoro-2-{(R)-3-[4-methoxy-2-oxo-3-(2-trifluoromethyl-benzyl)-2,3-dihydro-benzoimidazol-1-yl]-pyrrolidin-1-yl}-benzaldehyde] | 7.64 |
| COc1cccc2c1n(Cc1ccccc1C(F)(F)F)c(=O)n2[C@@H]1CCN(C(=O)OC2(C(F)(F)F)COC2)C1 [Example 86, (R)-3-[4-Methoxy-2-oxo-3-(2-trifluoromethyl-benzyl)-2,3-dihydro-benzoimidazol-1-yl]-pyrrolidine-1-carboxylic acid 3-trifluoromethyl-oxetan-3-yl ester] | 6.64 |
| COc1cccc2c1n(Cc1ccccc1C(F)(F)F)c(=O)n2[C@@H]1CCN(c2c(F)cccc2CO)C1 [Example 88, 1-[(R)-1-(2-Fluoro-6-hydroxymethyl-phenyl)-pyrrolidin-3-yl]-4-methoxy-3-(2-trifluoromethyl-benzyl)-1,3-dihydro-benzoimidazol-2-one] | 7.41 |
| COc1cccc2c1n(Cc1ccccc1C(F)(F)F)c(=O)n2[C@@H]1CCN(c2c(F)cccc2C(C)O)C1 (stereo partly drawn) [Example 89, 1-{(R)-1-[2-Fluoro-6-(1-hydroxy-ethyl)-phenyl]-pyrrolidin-3-yl}-4-methoxy-3-(2-trifluoromethyl-benzyl)-1,3-dihydro-benzoimidazol-2-one] | 7.36 |

Next, values leading:

| pIC50 | Compound |
| --- | --- |
| 6.88 | COc1cccc2c1n(Cc1ccccc1C(F)(F)F)c(=O)n2[C@@H]1CCN(c2c(C=O)c(C)nn2C)C1 [Example 71, 5-{(R)-3-[4-Methoxy-2-oxo-3-(2-trifluoromethyl-benzyl)-2,3-dihydro-benzoimidazol-1-yl]-pyrrolidin-1-yl}-1,3-dimethyl-1H-pyrazole-4-carbaldehyde] |
| 6.04 | COc1cccc2c1n(Cc1ccccc1C(F)(F)F)c(=O)n2[C@@H]1CCN(c2cc(C)nn2C)C1 [Example 79, 1-[(R)-1-(2,5-Dimethyl-2H-pyrazol-3-yl)-pyrrolidin-3-yl]-4-methoxy-3-(2-trifluoromethyl-benzyl)-1,3-dihydro-benzoimidazol-2-one] |
| 6.80 | COc1cccc2c1n(Cc1ccccc1C(F)(F)F)c(=O)n2[C@@H]1CCN(c2c(Cl)c(C)nn2C)C1 [Example 80, 1-[(R)-1-(4-Chloro-2,5-dimethyl-2H-pyrazol-3-yl)-pyrrolidin-3-yl]-4-methoxy-3-(2-trifluoromethyl-benzyl)-1,3-dihydro-benzoimidazol-2-one] |
| 5.69 | COc1cccc2c1n(Cc1ccccc1C(F)(F)F)c(=O)n2[C@@H]1CCN(c2nnc(C(F)(F)F)o2)C1 [Example 84, 4-Methoxy-3-(2-trifluoromethyl-benzyl)-1-[(R)-1-(5-trifluoromethyl-[1,3,4]oxadiazol-2-yl)-pyrrolidin-3-yl]-1,3-dihydro-benzoimidazol-2-one] |
| 6.15 | COc1cccc2c1n(Cc1ccccc1C(F)(F)F)c(=O)n2[C@@H]1CCN(c2c(C)c(C)nn2C)C1 [Example 85, 4-Methoxy-3-(2-trifluoromethyl-benzyl)-1-[(R)-1-(2,4,5-trimethyl-2H-pyrazol-3-yl)-pyrrolidin-3-yl]-1,3-dihydro-benzoimidazol-2-one] |
| 6.20 | COc1cccc2c1n(Cc1ccccc1C(F)(F)F)c(=O)n2[C@@H]1CCN(c2c(C#N)c(C)nn2C)C1 [Example 87, 5-{(R)-3-[4-Methoxy-2-oxo-3-(2-trifluoromethyl-benzyl)-2,3-dihydro-benzoimidazol-1-yl]-pyrrolidin-1-yl}-1,3-dimethyl-1H-pyrazole-4-carbonitrile] |
| 7.42 | COc1cccc2c1n(Cc1ccccc1C(F)(F)F)c(=O)n2[C@@H]1CCN(c2c(F)cccc2C(C)=O)C1 [Example 90, 1-[(R)-1-(2-Acetyl-6-fluoro-phenyl)-pyrrolidin-3-yl]-4-methoxy-3-(2-trifluoromethyl-benzyl)-1,3-dihydro-benzoimidazol-2-one] |
| 7.15 | COc1cccc2c1n(Cc1ccccc1C(F)(F)F)c(=O)n2[C@@H]1CCN(c2c(F)cccc2C(C)(C)O)C1 [Example 91, 1-{(R)-1-[2-Fluoro-6-(1-hydroxy-1-methyl-ethyl)-phenyl]-pyrrolidin-3-yl}-4-methoxy-3-(2-trifluoromethyl-benzyl)-1,3-dihydro-benzoimidazol-2-one] |
